Data on 14 compounds can be found in patent EP4678638A1, “NEW E3 UBIQUITIN LIGASE LIGAND, PROTEIN DEGRADATION AGENT AND USE THEREOF” (priority 2023, dated 2024).

This test concerns the target T1, FAK (Homo sapiens, UniProt Q05397).
T1 construct: evaluate the effects of the compounds of the present disclosure on the expression of target proteins in cells; endogenous in cells
Nature of the test: Western blot degradation of FAK. The class given is cell-based. The conditions noted are these: Table D7. The protocol:
Conventional Western blot assay was performed to evaluate the effects of the compounds of the present disclosure on the expression of target proteins in cells.
(1) Cell Seeding and Protein Harvesting: The selected cells were processed according to the cell seeding procedure and protein harvesting procedure in Table III-2. Table III-2 Cell Seeding and Protein Harvesting Procedures
(2) To the collected supernatant, 5X SDS sample loading buffer was added, followed by denaturation at 95°C for 5 minutes. The denatured samples were then separated by SDS-PAGE electrophoresis on a polyacrylamide gel. Proteins were transferred to a nitrocellulose membrane (0.45 µm NC membrane), blocked with blocking buffer at room temperature for 1 hour, and subjected to antibody incubation and development procedures according to the antibody manufacturer's instructions (Cell Signaling Technology).
Half-Maximal Degradation Concentration value (the drug concentration required for degrading proteins by 50%, abbreviated as DC50) reads method: comparing the grayscale values of Western blot bands from drug-treated samples with those from blank DMSO-treated controls, and identifying the drug concentration range at which the grayscale value is half that of the DMSO-treated control bands.
DC50 values can be calculated using ImageJ software to measure grayscale values of Western blot bands from drug-treated samples. The concentration-response curve is fitted to estimate the drug concentration corresponding to half the grayscale value.
Target protein remaining (%) refers to the percentage of target protein remaining in hPBMC cells after treatment with protein degrader compounds.
Calculation method for target protein remaining (%): Use ImageJ software to measure grayscale values of Western blot bands from drug (protein degrader)-treated samples. The grayscale value of drug-treated bands is divided by that of internal control protein bands, and the resulting quotient is normalized to obtain the relative percentage of remaining target protein after protein degrader treatment.
Target protein degradation rate (%) = 100% - target protein remaining (%).

T1 sequence (Q05397 whole entry, species assumed): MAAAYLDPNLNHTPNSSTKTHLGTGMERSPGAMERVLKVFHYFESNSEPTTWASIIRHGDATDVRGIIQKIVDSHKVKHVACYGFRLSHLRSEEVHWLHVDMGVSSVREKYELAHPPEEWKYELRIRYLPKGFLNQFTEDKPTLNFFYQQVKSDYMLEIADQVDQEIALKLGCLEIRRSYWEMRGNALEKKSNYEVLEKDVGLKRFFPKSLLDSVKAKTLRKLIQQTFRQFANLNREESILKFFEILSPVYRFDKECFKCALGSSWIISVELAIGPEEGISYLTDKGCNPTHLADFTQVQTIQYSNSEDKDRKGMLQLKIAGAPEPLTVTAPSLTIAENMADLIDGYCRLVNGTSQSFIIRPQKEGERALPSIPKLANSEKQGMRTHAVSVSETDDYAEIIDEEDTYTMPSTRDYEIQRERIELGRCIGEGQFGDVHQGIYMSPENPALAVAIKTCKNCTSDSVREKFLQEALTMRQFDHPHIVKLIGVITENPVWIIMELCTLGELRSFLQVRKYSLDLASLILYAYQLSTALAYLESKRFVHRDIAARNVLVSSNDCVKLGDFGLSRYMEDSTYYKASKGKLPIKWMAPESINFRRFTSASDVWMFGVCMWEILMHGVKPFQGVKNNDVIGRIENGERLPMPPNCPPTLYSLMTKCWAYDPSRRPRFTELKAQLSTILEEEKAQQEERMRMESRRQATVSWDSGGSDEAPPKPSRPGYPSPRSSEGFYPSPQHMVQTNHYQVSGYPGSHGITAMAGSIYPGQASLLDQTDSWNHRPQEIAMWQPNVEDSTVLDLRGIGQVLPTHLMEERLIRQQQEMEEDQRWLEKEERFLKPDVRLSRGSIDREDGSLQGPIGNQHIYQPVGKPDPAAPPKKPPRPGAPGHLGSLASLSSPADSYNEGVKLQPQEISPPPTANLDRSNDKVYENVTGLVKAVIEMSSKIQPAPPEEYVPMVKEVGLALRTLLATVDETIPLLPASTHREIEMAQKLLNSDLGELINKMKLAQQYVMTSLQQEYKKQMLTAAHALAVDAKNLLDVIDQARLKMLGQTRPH

On to `CS(=O)(=O)c1cccc(CNc2nc(Nc3ccc(N4CCN(Cc5ccc(C6CCC(=O)NC6=O)cc5)CC4)cc3)ncc2C(F)(F)F)c1` (centres unmarked) [GT-03822, 3-(4-((4-(4-((4-((3-(methylsulfonyl)benzyl)amino)-5-(trifluoromethyl)pyrimidin-2-yl)amino)phenyl)piperazin-1-yl)methyl)phenyl)piperidine-2,6-dione], for which the “Degradation of substrate protein FAK (substrate protein remaining %)” value (“Degradation … (substrate protein remaining %)” below) was “A (A is defined as 0% ≤ substrate protein remaining % ≤ 80%)”.
With `CS(=O)(=O)c1cccc(CNc2nc(Nc3ccc(N4CCN(Cc5ccc(C6CCC(=O)NC6=O)c(F)c5)CC4)cc3)ncc2C(F)(F)F)c1` (centres unmarked) [GT-03823, 3-(2-fluoro-4-((4-(4-((4-((3-(methylsulfonyl)benzyl)amino)-5-(trifluoromethyl)pyrimidin-2-yl)amino)phenyl)piperazin-1-yl)methyl)phenyl)piperidine-2,6-dione], the “Degradation … (substrate protein remaining %)” value is “A (A is defined as 0% ≤ substrate protein remaining % ≤ 80%)”.
The result for `CNC(=O)c1ccccc1Nc1cc(Nc2cc(C)c(N3CCN(Cc4ccc(C5CCC(=O)NC5=O)c(F)c4)CC3)cc2OC(C)C)ncc1C(F)(F)F` (centres unmarked) [GT-03947, 2-((2-((4-(4-(4-(2,6-dioxopiperidin-3-yl)-3-fluorobenzyl)piperazin-1-yl)-2-isopropoxy-5-methylphenyl)amino)-5-(trifluoromethyl)pyridin-4-yl)amino)-N-methylbenzamide] reads “A (A is defined as 0% ≤ substrate protein remaining % ≤ 80%)”; that for `CNC(=O)c1ccccc1Nc1cc(Nc2cc(C)c(C3CCN(Cc4ccc(C5CCC(=O)NC5=O)cc4)CC3)cc2OC(C)C)ncc1C(F)(F)F` (centres unmarked) [GT-04084, 2-((2-((4-(1-(4-(2,6-dioxopiperidin-3-yl)benzyl)piperidin-4-yl)-2-isopropoxy-5-methylphenyl)amino)-5-(trifluoromethyl)pyridin-4-yl)amino)-N-methylbenzamide], “A (A is defined as 0% ≤ substrate protein remaining % ≤ 80%)”; that for `CNC(=O)c1ccccc1Nc1cc(Nc2cc(C)c(C3CCN(Cc4ccc(C5CCC(=O)NC5=O)c(F)c4)CC3)cc2OC(C)C)ncc1C(F)(F)F` (centres unmarked) [GT-04085, 2-((2-((4-(1-(4-(2,6-dioxopiperidin-3-yl)-3-fluorobenzyl)piperidin-4-yl)-2-isopropoxy-5-methylphenyl)amino)-5-(trifluoromethyl)pyridin-4-yl)amino)-N-methylbenzamide], “A (A is defined as 0% ≤ substrate protein remaining % ≤ 80%)”.
In the case of `CS(=O)(=O)c1cccc(CNc2nc(Nc3ccc(N4CCN(Cc5cccc(N6CCC(=O)NC6=O)c5)CC4)cc3)ncc2C(F)(F)F)c1` [GT-04178, 1-(3-((4-(4-((4-((3-(methylsulfonyl)benzyl)amino)-5-(trifluoromethyl)pyrimidin-2-yl)amino)phenyl)piperazin-1-yl)methyl)phenyl)dihydropyr imidine-2,4(1H,3H)-dione] it was “A (A is defined as 0% ≤ substrate protein remaining % ≤ 80%)”; in that of `CN(c1nccnc1CNc1nc(Nc2ccc(N3CCN(Cc4ccc(N5CCC(=O)NC5=O)cc4)CC3)cc2)ncc1C(F)(F)F)S(C)(=O)=O` [GT-07400, N-(3-(((2-((4-(4-(4-(2,4-dioxotetrahydropyrimidin-1(2H)-yl)benzyl)piperazin-1-yl)phenyl)amino)-5-(trifluoromethyl)pyrimidin-4-yl)amino)methyl)pyrazin-2-yl)-N-methylmethanesulfonamide], “A (A is defined as 0% ≤ substrate protein remaining % ≤ 80%)”; in that of `CN(c1nccnc1CNc1nc(Nc2ccc(N3CCN(Cc4cccc(N5CCC(=O)NC5=O)c4)CC3)cc2)ncc1C(F)(F)F)S(C)(=O)=O` [GT-07401, N-(3-(((2-((4-(4-(3-(2,4-dioxotetrahydropyrimidin-1(2H)-yl)benzyl)piperazin-1-yl)phenyl)amino)-5-(trifluoromethyl)pyrimidin-4-yl)amino)methyl)pyrazin-2-yl)-N-methylmethanesulfonamide], “A (A is defined as 0% ≤ substrate protein remaining % ≤ 80%)”.
In the case of `CN(c1nccnc1CNc1nc(Nc2ccc(N3CCN(Cc4cc(N5CCC(=O)NC5=O)ncc4F)CC3)cc2)ncc1C(F)(F)F)S(C)(=O)=O` [GT-07405, N-(3-(((2-((4-(4-((2-(2,4-dioxotetrahydropyrimidin-1(2H)-yl)-5-fluoropyridin-4-yl)methyl)piperazin-1-yl)phenyl)amino)-5-(trifluoromethyl)pyrimidin-4-yl)amino)methyl)pyrazin-2-yl)-N-methylmethanesulfonamide] it was “A (A is defined as 0% ≤ substrate protein remaining % ≤ 80%)”; in that of `CN(c1nccnc1CNc1nc(Nc2ccc(N3CCN(Cc4ccnc(N5CCC(=O)NC5=O)c4)CC3)cc2)ncc1C(F)(F)F)S(C)(=O)=O` [GT-07406, N-(3-(((2-((4-(4-((2-(2,4-dioxotetrahydropyrimidin-1(2H)-yl)pyridin-4-yl)methyl)piperazin-1-yl)phenyl)amino)-5-(trifluoromethyl)pyrimidin-4-yl)amino)methyl)pyrazin-2-yl)-N-methylmethanesulfonamide], “A (A is defined as 0% ≤ substrate protein remaining % ≤ 80%)”; in that of `CS(=O)(=O)c1cccc(CNc2nc(Nc3ccc(N4CCN(Cc5ccnc(N6CCC(=O)NC6=O)c5)CC4)cc3)ncc2C(F)(F)F)c1` [GT-07462, 1-(4-((4-(4-((4-((3-(methylsulfonyl)benzyl)amino)-5-(trifluoromethyl)pyrimidin-2-yl)amino)phenyl)piperazin-1-yl)methyl)pyridin-2-yl)dihydropyrimidine-2,4(1H,3H)-dione], “A (A is defined as 0% ≤ substrate protein remaining % ≤ 80%)”.
As for `CS(=O)(=O)c1cccc(CNc2nc(Nc3ccc(N4CCN(Cc5ccc(C6CCC(=O)NC6=O)cn5)CC4)cc3)ncc2C(F)(F)F)c1` (centres unmarked) [GT-07466, 3-(6-((4-(4-((4-((3-(methylsulfonyl)benzyl)amino)-5-(trifluoromethyl)pyrimidin-2-yl)amino)phenyl)piperazin-1-yl)methyl)pyridin-3-yl)piperidine-2,6-dione], the “Degradation … (substrate protein remaining %)” value is recorded as “A (A is defined as 0% ≤ substrate protein remaining % ≤ 80%)”.
As to `CN(c1nccnc1CNc1nc(Nc2ccc(N3CCN(Cc4ccnc(C5CCC(=O)NC5=O)c4)CC3)cc2)ncc1C(F)(F)F)S(C)(=O)=O` (centres unmarked) [GT-07507, N-(3-(((2-((4-(4-((2-(2,6-dioxopiperidin-3-yl)pyridin-4-yl)methyl)piperazin-1-yl)phenyl)amino)-5-(trifluoromethyl)pyrimidin-4-yl)amino)methyl)pyrazin-2-yl)-N-methylmethanesulfonamide], the “Degradation … (substrate protein remaining %)” value is reported as “A (A is defined as 0% ≤ substrate protein remaining % ≤ 80%)”.
In the case of `CN(c1nccnc1CNc1nc(Nc2ccc(N3CCN(Cc4cncc(C5CCC(=O)NC5=O)c4)CC3)cc2)ncc1C(F)(F)F)S(C)(=O)=O` (centres unmarked) [GT-07510, N-(3-(((2-((4-(4-((5-(2,6-dioxopiperidin-3-yl)pyridin-3-yl)methyl)piperazin-1-yl)phenyl)amino)-5-(trifluoromethyl)pyrimidin-4-yl)amino)methyl)pyrazin-2-yl)-N-methylmethanesulfonamide], the “Degradation … (substrate protein remaining %)” value is “A (A is defined as 0% ≤ substrate protein remaining % ≤ 80%)”.
